Test results as given in patent US20210308089A1, “METHODS OF TREATING AND/OR PREVENTING VIRAL INFECTIONS AND/OR DISEASES CAUSED BY VIRUSES IN A SUBJECT IN NEED THEREOF” (priority 2020, published 2021).

Columns and labels:
[1] = test system: statin-treated hypertriglyceridemic patients with cardiovascular disease or at high risk for cardiovascular disease; test: REDUCE-IT: time to first occurrence of adjudicated cardiovascular events (primary, secondary, tertiary endpoints), AMR101 4 g/day vs placebo; type: in vivo, human
Excerpt: The following study, also referred to as the REDUCE-IT clinical trial, was a large cardiovascular (CV) outcome trial designed to assess CV risk reduction benefit of AMR101 treatment (commercially known as VASCEPA®) versus placebo on the 5-point primary composite endpoint: CV death, nonfatal stroke, nonfatal myocardial infarction (MI), coronary revascularizations, or unstable angina requiring hospitalization.
A multi-center, prospective, randomized, double-blind, placebo-controlled, parallel-group study was performed to evaluate the effect of AMR101 (4 g per day) on cardiovascular health and mortality in hypertriglyceridemic patients with cardiovascular disease or at high risk for cardiovascular disease. The intended expanded indication of the study was treatment with AMR101 as an add-on to statin therapy to reduce the risk of cardiovascular events in patients with clinical cardiovascular disease or with multiple risk factors for cardiovascular disease.
The primary objective of this study was, in patients at LDL-C goal while on statin therapy, with established cardiovascular disease (CVD) or at high risk for CVD, and hypertriglyceridemia (e.g., fasting triglycerides(TG) ≥200 mg/dL and <500 mg/dL), to evaluate the effect of AMR101 4 g daily on time from randomization to first occurrence of any component of the composite of the following major CV events: CV death; nonfatal MI (including silent MI); electrocardiograms (ECGs) were performed annually for the detection of silent MIs); nonfatal stroke; coronary revascularization; and unstable angina determined to be caused by myocardial ischemia by invasive/non-invasive testing and requiring emergent hospitalization.
The key secondary objective of this study was to evaluate the effect of AMR101 4 g daily on the time from randomization to the first occurrence of the composite of following major CV events: CV death, nonfatal MI (including silent MI), and nonfatal stroke.
Other secondary objectives for this study were to evaluate the effect of therapy on time from randomization to the first occurrence of the following individual or composite endpoints: composite of CV death or nonfatal MI (including silent MI); fatal or nonfatal MI (including silent MI); non-elective coronary revascularization represented as the composite of emergent or urgent classifications; CV death; unstable angina determined to be caused by myocardial ischemia by invasive/non-invasive testing and requiring emergent hospitalization; fatal or nonfatal stroke; composite of total mortality, nonfatal MI (including silent MI), or nonfatal stroke; and total mortality.
Primary Efficacy Endpoint: The primary efficacy endpoint was time from randomization to the first occurrence of the composite of the following clinical events: CV death; nonfatal MI (including silent MI; ECGs were performed annually for the detection of silent MIs); nonfatal stroke; coronary revascularization; and unstable angina determined to be caused by myocardial ischemia by invasive/non-invasive testing and requiring emergent hospitalization. The first occurrence of any of these major adverse vascular events during the follow-up period of the study was included in the incidence.
Secondary Efficacy Endpoints: The key secondary efficacy endpoint was the time from randomization to the first occurrence of the composite of CV death, nonfatal MI (including silent MI), or nonfatal stroke. […]

[2] = test system: statin-treated patients with established atherosclerosis or diabetes and elevated triglycerides; test: REDUCE-IT: total (first and recurrent) ischemic events analysis; type: in vivo, human
Excerpt: The following study was a multi-center, placebo-controlled clinical trial the details of which are described above in Example 1, the REDUCE-IT design. […] Randomization was stratified by cardiovascular risk cohort (i.e., secondary or primary prevention), use of ezetimibe, and by geographic region.
The primary outcome for the study was total recurrent events consisting of the composite of cardiovascular death, nonfatal myocardial infarction, nonfatal stroke, coronary revascularization, or hospitalization for unstable angina. Recurrent event analyses were also performed for the key secondary endpoint, a composite of cardiovascular death, nonfatal myocardial infarction, or nonfatal stroke. For each of these composite endpoints, the effects of icosapent ethyl in the secondary and primary prevention strata were examined separately.
Demographic and baseline disease characteristics are presented using frequencies and percentages for categorical variables and medians with interquartile ranges for continuous variables. Between treatment group comparisons were derived using the chi-square test for categorical variables and Wilcoxon rank test for continuous variables. All clinical endpoint events used in the efficacy analyses were adjudicated by an independent Clinical Endpoint Committee (CEC) who were blinded to the treatment assignment. Since the primary efficacy endpoint was the time from randomization to the first occurrence of any component of the composite endpoint, and recurrence of such events within each patient is possible, a pre-specified analysis using a Cox proportional-hazard with the counting-process formulation of Andersen and Gill was performed to model the first and all recurrent cardiovascular events. HRs and corresponding 95% CIs are reported from this model. In addition, as a marginal model and an extension of survival models based on the Cox proportional hazard model, the modified Wei-Lin-Weissfeld (WLW) method for analysis of recurrent events in the presence of deaths was carried out as a supportive analysis. In addition, as pre-specified, a recurrent event analysis using the Andersen-Gill and Wei-Lin-Weissfeld methods was carried out for the individual primary event components other than CV death. Though not pre-specified, additional recurrent event analyses were performed for the key secondary endpoint, which is a composite of CV death, nonfatal MI, or nonfatal stroke, and for the primary endpoint and the key secondary endpoint in the primary and secondary prevention strata to explore further the consistency of clinical benefit of icosapent ethyl. In subgroup analyses of the two cardiovascular risk strata (i.e., primary and secondary prevention), site-level discrepancies in cardiovascular risk group assignment occurring at entry and detected during the study (1.8%) were adjusted to conform with documented medical history data prior to randomization. All efficacy analyses were performed according to the intention-to-treat principle. All tests were based on a 2-sided nominal significance level of 5% with no adjustments for multiple comparisons.

[3] = REDUCE-IT ITT, listed as AMR101
[4] = REDUCE-IT ITT, time to first event
[5] = vs placebo, listed as Icosapent Ethyl

Compound: CC/C=C\C/C=C\C/C=C\C/C=C\C/C=C\CCCC(=O)OCC [icosapent ethyl, eicosapentaenoic acid ethyl ester]
- Amputation for PVD: % of patients ([1]; REDUCE-IT ITT): (0.5%)
- Cardiac arrest: % of patients ([1]; REDUCE-IT ITT): (0.5%)
- Cardiac arrhythmias requiring hospitalization of ≥24 hours: % of patients ([1]; REDUCE-IT ITT): (4.6%)
- Cardiovascular death: HR vs placebo ([1]; REDUCE-IT ITT): 0.80
- Cardiovascular death: patients ([1]; REDUCE-IT ITT): 4.3%
- Carotid revascularization: % of patients ([1]; REDUCE-IT ITT): (0.8%)
- Coronary revascularization: % of patients ([1]; REDUCE-IT ITT): (9.2%)
- Elective revascularization: % of patients ([1]; REDUCE-IT ITT): (4.7%)
- Emergent revascularization: % of patients ([1]; REDUCE-IT ITT): (1.0%)
- Hemorrhagic stroke: % of patients ([1]; REDUCE-IT ITT): (0.3%)
- Ischemic stroke: % of patients ([1]; REDUCE-IT ITT): (2.0%)
- New heart failure requiring hospitalization: % of patients ([1]; REDUCE-IT ITT): (3.4%)
- New heart failure: % of patients ([1]; REDUCE-IT ITT): (4.1%)
- Primary endpoint in patients with diabetes at baseline: % of patients ([1]; REDUCE-IT ITT): (18.1%)
- Salvage revascularization: % of patients ([1]; REDUCE-IT ITT): (0.0%)
- Sudden cardiac death: % of patients ([1]; REDUCE-IT ITT): (1.5%)
- Total mortality (death from any cause): patients ([1]; REDUCE-IT ITT): 6.7%
- Total mortality: HR vs placebo ([1]; REDUCE-IT ITT): 0.87
- Transient ischemic attack: % of patients ([1]; REDUCE-IT ITT): (1.6%)
- Urgent revascularization: % of patients ([1]; REDUCE-IT ITT): (4.4%)
- Hemorrhagic stroke: % of patients [1, 3]: 0.3%
- New heart failure: % of patients [1, 3]: 4.1%
- Key secondary composite endpoint: HR vs placebo [1, 4]: 0.74
- Primary composite endpoint: HR vs placebo [1, 4]: 0.75
- New onset of diabetes: % of patients ([1]; patients with diabetes at baseline excluded): (3.8%)
- Composite of cardiovascular death or nonfatal myocardial infarction: RRR ([1]; vs placebo): 25%
- Composite of total mortality, nonfatal myocardial infarction, or nonfatal stroke: reduction (RRR) ([1]; vs placebo): 23%
- Key secondary composite endpoint: relative risk reduction ([1]; vs placebo): 26%
- Primary composite endpoint: relative risk reduction ([1]; vs placebo): 25%
- Total mortality: reduction (RRR) ([1]; vs placebo): 13%
- Key secondary composite endpoint: relative risk reduction [1, 5]: 26.5%
- Primary composite endpoint: relative risk reduction [1, 5]: 24.8%
- Total primary endpoint events: HR vs placebo ([2]; overall trial): 0.68
- Total primary endpoint events prevented ([2]; per 100 patients treated for five years): approximately 16
- Total key secondary endpoint: HR ([2]; primary prevention stratum, vs placebo): 0.71
- Total key secondary endpoint: HR ([2]; secondary prevention stratum, vs placebo): 0.70
- First events reduced by ([2]; vs placebo): 25%
- Second events reduced by ([2]; vs placebo): 28%
- Third or more events reduced by ([2]; vs placebo): 50%
- Total events for the primary composite efficacy outcome: relative risk reduction ([2]; vs placebo): 32%
